The source of these data is ChEMBL document CHEMBL1201862, “PubChem BioAssay data set” (2004).

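These data come from cells grown in 96-well plates and exposed to compound for 48 hours at five concentrations. GI50 marks 50% less growth.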 Activity calls are given as the source filed them. Rule as the data show it: active = GI50 up to about 1.1 µM and inactive = higher. Some results are limits rather than exact numbers.

Some test systems named below: COLO 205; HCC 2998; A549; SN12C; OVCAR-5; SF-295; IGROV-1; HCT-15; K562; LOX IMVI; SK-OV-3; SK-MEL-28; EKVX; KM12; NCI-H460; NCI-H226; OVCAR-4; SF-268; MDA-MB-435; MDA-MB-231.
Common to all, as to assay: NCI tumour cell line growth inhibition, 48 h

For the compound `COC1=C2CC(C)CC(OC)C(O)C(C)/C=C(\C)C(OC(N)=O)C(OC)/C=C\C=C(/C)C(=O)NC(=C(/C=N/N3CCCCC3)C1=O)C2=O` (centres undefined), the GI50 with COLO 205 was 2.93 µM (inactive); with HCC 2998, 6.7 µM (inactive); with A549 it was 21.5 µM (inactive); in the test on SN12C it was 4.5 µM (inactive); in the test on OVCAR-5, 19.4 µM (inactive); in the test on SF-295, 13.5 µM (inactive). Moreover, the GI50 is 5.5 µM (inactive) in the test on IGROV-1; 12.2 µM in the test with HCT-15; 5.4 µM (inactive) in the test on K562; 8.55 µM (inactive) in the test on LOX IMVI; 21.9 µM (inactive) in the test with SK-OV-3; 18.7 µM (inactive) in the test with SK-MEL-28. Further, the GI50 in the test with EKVX is 8.43 µM (inactive); in the test on KM12, 11.6 µM (inactive); in the test on NCI-H460, 19.5 µM (inactive); with NCI-H226, 12.4 µM (inactive); in the test on OVCAR-4, 5.26 µM (inactive); with SF-268, 6.18 µM (inactive).
As to `Fc1ccc(Nc2nnc(-c3ccccn3)s2)cc1`, the GI50 in the test with COLO 205, in the test on MDA-MB-435, in the test on A549, in the test on SN12C, with OVCAR-5 and in the test on SF-295 was > 100 µM (inactive) each time. Moreover, the GI50 was > 100 µM (inactive) with IGROV-1; greater than 100 µM in the test on HCT-15; > 100 µM (inactive) in the test on LOX IMVI; > 100 µM (inactive) in the test with SK-OV-3; > 100 µM (inactive) in the test with SK-MEL-28; > 100 µM (inactive) in the test on EKVX. The GI50 in the test with KM12, in the test with NCI-H460, with MDA-MB-231, in the test with OVCAR-4 and in the test on SF-268 was > 100 µM (inactive) each time.
For the compound `C=CCN(C(=O)OC(C)(C)C)[C@H](C)C(=O)N[C@@H](C)C(=O)OC`, the GI50 with COLO 205, in the test with MDA-MB-435, in the test with A549, in the test on SN12C, in the test with OVCAR-5 and with SF-295 was > 100 µM (inactive) each time. Moreover, the GI50 is > 100 µM (inactive) in the test with IGROV-1; greater than 100 µM in the test with HCT-15; > 100 µM (inactive) in the test with K562; > 100 µM (inactive) in the test on LOX IMVI; > 100 µM (inactive) in the test on SK-OV-3; > 100 µM (inactive) in the test on SK-MEL-28. Also, the GI50 with EKVX, in the test with KM12, with NCI-H226, in the test with MDA-MB-231, in the test on OVCAR-4 and in the test on SF-268 was > 100 µM (inactive) each time.
As for `Cc1cn(CC2=NCC(C)(C)N2)c(=O)[nH]c1=O`, the GI50 with COLO 205, in the test on HCC 2998, in the test with A549, with SN12C, in the test on OVCAR-5 and with SF-295 was > 100 µM (inactive) in each case. Also, the GI50 with IGROV-1 was > 100 µM (inactive); with HCT-15, greater than 100 µM; with K562 it was > 100 µM (inactive); in the test on LOX IMVI, > 100 µM (inactive); with SK-OV-3, > 100 µM (inactive); with SK-MEL-28, > 100 µM (inactive). The GI50 with EKVX, with NCI-H460, in the test on NCI-H226, in the test with MDA-MB-231 and in the test on SF-268 was > 100 µM (inactive) throughout.
As for `CCO/C(CCn1[nH]c(=O)c(Cl)c(Cl)c1=O)=N\NC(=O)C(=O)NN`, the GI50 in the test with COLO 205, in the test on HCC 2998, in the test on A549, in the test on SN12C, in the test on OVCAR-5 and in the test on SF-295 was > 100 µM (inactive) in each case. In addition, the GI50 with IGROV-1 is > 100 µM (inactive); in the test on HCT-15 it was greater than 100 µM; with K562, > 100 µM (inactive); with LOX IMVI, > 100 µM (inactive); in the test with SK-OV-3, > 100 µM (inactive); in the test on SK-MEL-28, > 100 µM (inactive). For the same compound, the GI50 with EKVX, with KM12, with NCI-H460, with NCI-H226, with OVCAR-4 and in the test with SF-268 was > 100 µM (inactive) each time.
Regarding `Cc1cccc(NC(=O)Cc2nc3ccccc3s2)c1C`, the GI50 in the test with COLO 205, in the test on HCC 2998, in the test on A549, with SN12C, in the test with OVCAR-5 and in the test with SF-295 was > 100 µM (inactive) in each case. The GI50 is > 100 µM (inactive) in the test on IGROV-1; greater than 100 µM in the test with HCT-15; > 100 µM (inactive) in the test with K562; > 100 µM (inactive) with LOX IMVI; > 100 µM (inactive) in the test with SK-OV-3; > 100 µM (inactive) in the test on SK-MEL-28. The GI50 in the test with EKVX, in the test on KM12, in the test on NCI-H460, in the test with NCI-H226, with OVCAR-4 and with SF-268 was > 100 µM (inactive) each time.
On to `COc1ccc2nc3cc(Cl)ccc3c(Sc3ccc([N+](=O)[O-])cc3)c2c1`, for which the GI50 with COLO 205, with HCC 2998, with A549, in the test on SN12C, in the test with OVCAR-5 and in the test on SF-295 was > 10 µM (inactive) each time. Further, the GI50 is > 10 µM (inactive) in the test on IGROV-1; greater than 10 µM in the test on HCT-15; > 10 µM (inactive) in the test with K562; > 10 µM (inactive) in the test on LOX IMVI; > 10 µM (inactive) with SK-OV-3; > 10 µM (inactive) in the test on SK-MEL-28. Also, the GI50 in the test on EKVX, in the test with KM12, with NCI-H460, in the test with NCI-H226, in the test with OVCAR-4 and with SF-268 was > 10 µM (inactive) in each case.
For the compound `O=C1c2c(n(Cc3ccccc3)c(=O)n2Cc2ccccc2)C(=O)N1Cc1ccccc1`, the GI50 was > 100 µM (inactive) in the test on COLO 205; 61.4 µM (inactive) with HCC 2998; 41.9 µM (inactive) with A549; 65.5 µM (inactive) with SN12C; > 100 µM (inactive) in the test on OVCAR-5; 72.3 µM (inactive) with SF-295. Moreover, the GI50 in the test with IGROV-1 is 93.5 µM (inactive); in the test with HCT-15, 47.8 µM; in the test on K562 it was 58.1 µM (inactive); with LOX IMVI, 32.4 µM (inactive); with SK-OV-3, > 100 µM (inactive); with SK-MEL-28 it was > 100 µM (inactive). In addition, the GI50 in the test with EKVX was 66.8 µM (inactive); with KM12, 55.5 µM (inactive); in the test on NCI-H460, 72.4 µM (inactive); in the test on NCI-H226, 92.7 µM (inactive); with OVCAR-4, 46.5 µM (inactive); with SF-268 it was 64.1 µM (inactive).
Turning to `N=S(c1ccccc1[N+](=O)[O-])c1ccccc1[N+](=O)[O-]`, the GI50 in the test with COLO 205 is 1.3 µM (inactive); in the test with HCC 2998, 3.4 µM (inactive); in the test with A549, 4.45 µM (inactive); in the test on SN12C, 1.11 µM (active); in the test on OVCAR-5, 4.13 µM (inactive); in the test with IGROV-1, 1.98 µM (inactive). Moreover, the GI50 with HCT-15 is 0.912 µM; in the test on LOX IMVI, 0.76 µM (active); in the test on SK-OV-3, 8.63 µM (inactive); in the test on SK-MEL-28, 4.28 µM (inactive); with EKVX it was 5.04 µM (inactive); in the test on KM12 it was 3.34 µM (inactive). In addition, the GI50 was 4.79 µM (inactive) in the test with NCI-H226, 1.77 µM (inactive) in the test on MDA-MB-231, 0.914 µM (active) with OVCAR-4 and 4.73 µM (inactive) with SF-268.
As for `c1ccc(CNc2ccc3[nH]c4cnccc4c3c2)cc1`, the GI50 in the test with COLO 205 was 15.9 µM (inactive); in the test on HCC 2998 it was 18.1 µM (inactive); with A549, 17.9 µM (inactive); in the test on SN12C, 16.9 µM (inactive); in the test on OVCAR-5 it was 16.8 µM (inactive); in the test with SF-295, 18.5 µM (inactive). In addition, the GI50 was 16.8 µM (inactive) in the test on IGROV-1; 19.4 µM in the test with HCT-15; 14.3 µM (inactive) in the test on K562; 17.8 µM (inactive) in the test on LOX IMVI; 18.8 µM (inactive) in the test with SK-OV-3; 13.6 µM (inactive) in the test on SK-MEL-28. The GI50 in the test with EKVX is 19 µM (inactive); with KM12, 17.3 µM (inactive); with NCI-H460, 17.9 µM (inactive); with NCI-H226, 19.1 µM (inactive); in the test with OVCAR-4 it was 14.4 µM (inactive); in the test with SF-268 it was 16.4 µM (inactive).
Take `CCCCCCCCCCCC1CC(=O)NCCCN(C)CCCCN(C)CCCN1C` (centres undefined) [BUDMUNCHIAMINE A]: the GI50 in the test on COLO 205 is 1.53 µM (inactive); in the test on HCC 2998, 1.74 µM (inactive); with A549, 1.76 µM (inactive); in the test on SN12C, 1.74 µM (inactive); with OVCAR-5 it was 1.85 µM (inactive); in the test on SF-295 it was 1.64 µM (inactive). The GI50 with IGROV-1 was 1.82 µM (inactive); with HCT-15, 1.63 µM; in the test on K562 it was 0.261 µM (active); in the test on LOX IMVI, 1.48 µM (inactive); with SK-OV-3 it was 1.8 µM (inactive); with SK-MEL-28, 1.69 µM (inactive). Besides, the GI50 with EKVX is 1.78 µM (inactive); with KM12 it was 1.58 µM (inactive); with NCI-H460, 1.36 µM (inactive); in the test with NCI-H226, 1.93 µM (inactive); with OVCAR-4, 1.74 µM (inactive); with SF-268 it was 1.85 µM (inactive).
